Two substances from patent publication US20260124244A1, “MEGAKARYOCYTE DERIVATIVES FOR TREATMENT OF DRY EYE DISEASES” (Stellular Bio, Inc., priority 2023, published 2026) can be followed below.

The test system of assay [1] is human corneal epithelial (HCE-T) cells. As to the kind of experiment: HCE-T cell proliferation, xCELLigence RTCA cell index. The format is cell-based. The following applies: 72-hour time course; EGF 30.4 pg/ml to 31.2 ng/ml; MLC lysates 0.025-0.75% (v/v) (high speed centrifugation) or 0.22 μm filtered. The procedure:
Effect of MLC lysate on proliferation of human corneal epithelial (HCE-T) cells was measured. Briefly, HCE-T cells were plated on to E-Plate 96 (Agilent Technologies, Santa Clara, CA) at 2,500 cells per well in minimal KGM-Gold medium (Lonza, Walkersville, MD). Minimal KGM-Gold medium contains all KGM-Gold BulletKit components except for EGF (positive control), MLC lysates, and/or bovine pituitary extract. For negative control vehicle only, phosphate buffer solution (PBS) was used. After 24 hours, cells were treated with indicated concentrations of MLC lysates, EGF (SinoBiological Inc., Beijing, China) or PBS. The E-plate was then returned to the xCELLigence RTCA instrument for data collection for an additional 48 hours. Area under the curve (AUC) of normalized Cell Index was calculated using RTCA Software Pro and then normalized to vehicle. FIG. 10A illustrates results of a 72-hour time course study of effects of EGF on proliferation of HCE-T cells at a concentration ranging from 30.4 pg/ml to 31.2 ng/ml. FIG. 10B is an alternate representation of FIG. 10A showing normalized area under curved of normalized cell index for each concentration. […] FIG. 11A illustrates results of a 72-hour time course study of effects of MLC Lysates processed with high speed centrifugation on the proliferation of HCE-T cells at a dose ranging from 0.025% (v/v) to 0.75% (v/v). […]

Assay [2] has as its system rat medial meniscal tear (MMT) model of osteoarthritis (OA). As to the kind of experiment: Electronic Von Frey Filament test in rat MMT osteoarthritis model. The format is in vivo. As to conditions: intraarticular injection on days 7, 14 and 21 after surgery; compared to vehicle. The procedure:
(§1) In vivo effect of MLC lysate and PLC in a subject having osteoarthritis was measured. A rat medial meniscal tear (MMT) model of osteoarthritis (OA) was used in an in vivo study for testing efficacy of megakaryocyte derivatives. […] As described in FIG. 13A, Lewis rats were subjected to meniscal tear surgery on day 0. Dynamic weight bearing and electronic Von Frey Filament analyses were conducted at 7, 14, 21 and 28 days following surgery. Subjects were administered with MLC lysates or PLCs by intraarticular injection after DWB and EVFF analysis on days 7, 14 and 21 following surgery. On day 28 following surgery, serum was collected, and animals were sacrificed to allow for joint histology. PRP and recombinant human FGF-18 were used as positive controls. For negative control vehicle only was used. In sum, the study comprised the following groups: No surgery (n=5), MMT Surgery+Vehicle (n=15), MMT Surgery+Platelet-like cells (n=15), MMT Surgery+Platelet-rich plasma (n=15), MMT Surgery+rFGF-18 (n=15), and MMT Surgery+MLC Lysate (n=15).
(§2) FIGS. 13B and 13C illustrate efficacy results of MLC lysate and PLC in the rat medial meniscal tear model of osteoarthritis using dynamic weight bearing test and electronic Von Frey Filament test, respectively.

The test system is the same in assay [3]. As to the kind of experiment: Joint histology in rat MMT osteoarthritis model. The format is in vivo. The following applies: day 28 after surgery. The procedure:
as §1
As outlined in FIG. 13A, a histological analysis of test subjects was performed 28 days following the surgery. […] Additionally, synovitis score wad medial tibial osteophyte measurement was performed based on analysis of histological data.

For assay [4] the test system is unchanged. As to the kind of experiment: Dynamic weight bearing test in rat MMT osteoarthritis model. It counts as in vivo. As to conditions: intraarticular injection on days 7, 14 and 21 after surgery; tested days 7-28. The procedure: as §1, §2

Consider “EGF: EGF (SinoBiological Inc.) used as positive control for HCE-T proliferation (NSDSECPLSHDGYCLHDGVCMYIEALDKYACNCVVGYIGERCQYRDLKWWELR; Epidermal growth factor; UniProt P01133 971-1023, looked up)”, for which, in assay [1], the “proliferation of HCE-T cells (AUC of normalized Cell Index, normalized to vehicle)” value was “promotes corneal epithelial cell proliferation in a dose-dependent manner”.
Turning to “recombinant human FGF-18: recombinant human FGF-18 used as positive control in the rat MMT model”, the “electronic von Frey filament thresholds” value in assay [2] was “significant decrease in thresholds”. In assay [3], the “medial tibial osteophyte measurement compared to vehicle” value is recorded as “resulted in a significant increase”, the “substantial cartilage degeneration width compared to vehicle” value was “significant reduction compared to vehicle treatment” and the “synovitis score compared to vehicle” value was “significant increase in synovitis score”. Further, the “pain profile in dynamic weight bearing testing” value in assay [4] was “progressive increasing signal over time”.
